From patent US11873295B2, “Allosteric chromenone inhibitors of phosphoinositide 3-kinase (PI3K) for the treatment of disease” (Petra Pharma Corporation, priority 2021, dated 2024)

Legend:
[1] = target: T1, human full length PIK3KA Wild-type (p110α/p85α complex) (Homo sapiens, UniProt P42336); test: PI3K-alpha kinase (PIK3CA) biochemical activity, wild-type, ADP-Glo; settings: PI3K-α (PIK3CA) biochemical, Soy PI lipid substrate
T1 construct: Recombinant, catalytically active human full length PIK3KA Wild-type and H1047R mutant were purchased as 1:1 complex; 6xHis (N); purchased EMD Millipore Sigma 14-602M
How it was run: (§1)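 ADP formation, read by ADP-Glo, is run to about 10% ATP turnover at 27 °C with 20 μM ATP and 50 μM PIP2diC8 or soy PI. WT or H1047R p110α/p85α (1–5 nM) is pre-incubated 1 h with compound in HEPES pH 7.4/MgCl2/Triton buffer, 1% DMSO. 10-point 1:3 series, logistic IC50 versus no-enzyme and DMSO controls.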

[2] = target: T2, human full length PIK3KA H1047R mutant (p110α/p85α complex) (Homo sapiens, UniProt P42336, H1047R); test: PI3K-alpha kinase (PIK3CA) biochemical activity, H1047R mutant, ADP-Glo; settings: PI3K-α (PIK3CA) biochemical, H1047R mutant, Soy PI lipid substrate
T2 construct: Recombinant, catalytically active human full length PIK3KA Wild-type and H1047R mutant were purchased as 1:1 complex; 6xHis (N); purchased EMD Millipore Sigma 14-792M
How it was run: as §1

[3] = system: PI3K-α (PIK3CA) in MDA-MB-453 cells; test: PI3K-alpha kinase (PIK3CA) activity in vitro cell based assay, MDA-MB-453 cells, AlphaLisa SureFire; settings: 0% FBS, 3 hours treatment, relative IC50
How it was run: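 MDA-MB-453 cells in serum-free MEM with 1 μg/mL insulin treated 3 h with 10-point 1:3 compound dilutions, 0.3% DMSO. Lysates read by AlphaLisa SureFire; percent inhibition relative to DMSO (max) and 1 μM GDC-0032 (min), duplicate means fitted to 4-parameter logistic for relative IC50.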

T2 sequence (P42336 whole entry H1047R): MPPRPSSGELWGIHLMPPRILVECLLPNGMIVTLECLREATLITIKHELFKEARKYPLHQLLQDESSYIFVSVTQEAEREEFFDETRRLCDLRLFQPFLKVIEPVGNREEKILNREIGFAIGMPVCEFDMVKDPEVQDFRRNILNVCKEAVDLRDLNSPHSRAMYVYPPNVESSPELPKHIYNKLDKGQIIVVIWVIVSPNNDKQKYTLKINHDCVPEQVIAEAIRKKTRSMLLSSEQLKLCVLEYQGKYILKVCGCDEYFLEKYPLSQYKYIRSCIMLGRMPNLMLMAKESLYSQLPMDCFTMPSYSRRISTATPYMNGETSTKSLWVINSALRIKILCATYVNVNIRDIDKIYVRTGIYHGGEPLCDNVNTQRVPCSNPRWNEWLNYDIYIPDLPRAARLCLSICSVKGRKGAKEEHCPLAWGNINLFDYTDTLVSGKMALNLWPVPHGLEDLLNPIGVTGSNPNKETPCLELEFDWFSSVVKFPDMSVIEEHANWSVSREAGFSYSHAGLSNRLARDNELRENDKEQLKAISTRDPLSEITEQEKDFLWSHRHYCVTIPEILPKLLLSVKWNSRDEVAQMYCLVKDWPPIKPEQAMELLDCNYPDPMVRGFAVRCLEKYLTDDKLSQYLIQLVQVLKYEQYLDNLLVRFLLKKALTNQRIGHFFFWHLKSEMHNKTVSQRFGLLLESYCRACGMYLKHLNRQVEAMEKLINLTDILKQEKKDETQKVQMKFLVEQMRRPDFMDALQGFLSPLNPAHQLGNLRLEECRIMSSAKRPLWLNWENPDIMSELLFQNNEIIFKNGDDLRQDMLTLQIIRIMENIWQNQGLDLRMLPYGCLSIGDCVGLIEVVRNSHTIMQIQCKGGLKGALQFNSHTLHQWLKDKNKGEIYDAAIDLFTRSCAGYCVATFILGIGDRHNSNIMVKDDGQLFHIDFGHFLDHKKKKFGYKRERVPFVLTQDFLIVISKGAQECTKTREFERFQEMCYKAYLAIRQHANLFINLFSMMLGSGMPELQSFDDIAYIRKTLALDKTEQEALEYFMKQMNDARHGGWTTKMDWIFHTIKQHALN
T2 sequence (P27986 whole entry partner): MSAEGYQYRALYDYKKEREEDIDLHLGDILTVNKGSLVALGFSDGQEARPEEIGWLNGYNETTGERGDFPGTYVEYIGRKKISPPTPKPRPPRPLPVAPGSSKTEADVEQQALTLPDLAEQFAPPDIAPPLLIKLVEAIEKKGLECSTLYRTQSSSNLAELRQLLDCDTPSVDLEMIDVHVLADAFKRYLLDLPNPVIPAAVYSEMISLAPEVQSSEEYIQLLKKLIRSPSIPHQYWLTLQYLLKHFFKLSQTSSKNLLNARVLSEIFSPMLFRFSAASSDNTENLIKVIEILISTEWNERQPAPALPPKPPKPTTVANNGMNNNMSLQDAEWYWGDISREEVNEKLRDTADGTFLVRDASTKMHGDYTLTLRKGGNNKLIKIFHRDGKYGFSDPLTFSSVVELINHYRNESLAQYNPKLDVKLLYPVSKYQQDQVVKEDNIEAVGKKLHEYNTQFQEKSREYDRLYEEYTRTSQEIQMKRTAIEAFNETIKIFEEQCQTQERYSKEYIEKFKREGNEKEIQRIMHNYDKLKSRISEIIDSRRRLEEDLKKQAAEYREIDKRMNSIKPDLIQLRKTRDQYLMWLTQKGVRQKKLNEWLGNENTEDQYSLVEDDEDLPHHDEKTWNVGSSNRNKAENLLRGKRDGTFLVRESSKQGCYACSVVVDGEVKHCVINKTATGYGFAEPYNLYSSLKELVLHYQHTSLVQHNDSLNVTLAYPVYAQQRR

Row | SMILES | IC50 [1] | IC50 [2] | IC50 ([3]; Homo sapiens, MDA-MB-453, 3 h) | IC50 [3]
1 | Cc1cc([C@@H](C)Nc2cccc(Cl)c2C(=O)O)c2oc(-c3ccccc3)c(C)c(=O)c2c1 [Example 76, 2-Chloro-6-[[(1R)-1-(3,6-dimethyl-4-oxo-2-phenyl-chromen-8-yl)ethyl]amino]benzoic acid] | 5000 to 10000 nM | < 500 nM | < 50 nM | –
2 | Cc1cc([C@@H](C)Nc2ccccc2C(=O)O)c2oc(-c3cccc(C(F)F)c3)c(C)c(=O)c2c1 [Example 73, 2-[[(1R)-1-[2-[3-(Difluoromethyl)phenyl]-3,6-dimethyl-4-oxo-chromen-8-yl]ethyl]amino]benzoic acid 2,2,2-trifluoroacetic acid] | > 10000 nM | < 500 nM | < 50 nM | –
3 | Cc1cc([C@@H](C)Nc2ccc(C)c(F)c2C(=O)O)c2oc(-c3ccccc3)c(C)c(=O)c2c1 [Example 43, 6-[[(1R)-1-(3,6-Dimethyl-4-oxo-2-phenyl-chromen-8-yl)ethyl]amino]-2-fluoro-3-methyl-benzoic acid] | 1000 to 5000 nM | < 500 nM | 50 to 100 nM | –
4 | Cc1cc([C@@H](C)Nc2ccccc2C(=O)O)c2oc(-c3ccc(F)c(F)c3)c(C)c(=O)c2c1 [Example 78, 2-[[(1R)-1-[2-(3,4-Difluorophenyl)-3,6-dimethyl-4-oxo-chromen-8-yl]ethyl]amino]benzoic acid 2,2,2-trifluoroacetic acid] | 1000 to 5000 nM | < 500 nM | < 50 nM | –
5 | Cc1cc([C@@H](C)Nc2ccc(C(F)(F)F)cc2C(=O)O)c2oc(-c3ccccc3)cc(=O)c2c1 [Example 33, 2-[[(1R)-1-(6-Methyl-4-oxo-2-phenyl-chromen-8-yl)ethyl]amino]-5-(trifluoromethyl)benzoic acid] | 5000 to 10000 nM | < 500 nM | 100 to 500 nM | –
6 | Cc1cc(C(C)Nc2ccccc2C(=O)O)c2oc(-c3ccc(N4CCCC4)cc3)cc(=O)c2c1 (single isomer, unassigned; isomer 2) [Example 55, 2-[1-[6-Methyl-4-oxo-2-(4-pyrrolidin-1-ylphenyl)chromen-8-yl]ethylamino]benzoic acid, Isomer 2] | 1000 to 5000 nM | < 500 nM | 100 to 500 nM | –
7 | Cc1cc([C@@H](C)Nc2ccc(Cl)nc2C(=O)O)c2oc(-c3ccccc3)c(C)c(=O)c2c1 [Example 1, 6-Chloro-3-[[(1R)-1-(3,6-dimethyl-4-oxo-2-phenyl-chromen-8-yl)ethyl]amino]pyridine-2-carboxylic acid] | 500 to 1000 nM | < 500 nM | < 50 nM | –
8 | Cc1cc([C@@H](C)Nc2ccc(F)cc2C(=O)O)c2oc(-c3ccccc3)c(C)c(=O)c2c1 [Example 58, 2-[[(1R)-1-(3,6-Dimethyl-4-oxo-2-phenyl-chromen-8-yl)ethyl]amino]-5-fluoro-benzoic acid] | < 500 nM | < 500 nM | < 50 nM | –
9 | Cc1cc([C@@H](C)Nc2ccccc2C(=O)O)c2oc(-c3ccc(C(C)(C)C#N)cc3)cc(=O)c2c1 [Example 25] | 1000 to 5000 nM | < 500 nM | 50 to 100 nM | –
10 | COc1cccc(-c2cc(=O)c3cc(C)cc([C@@H](C)Nc4ccccc4C(=O)O)c3o2)c1 [Example 60, 2-[[(1R)-1-[2-(3-Methoxyphenyl)-6-methyl-4-oxo-chromen-8-yl]ethyl]amino]benzoic acid 2,2,2-trifluoroacetic acid] | 500 to 1000 nM | < 500 nM | < 50 nM | –
11 | Cc1cc([C@@H](C)Nc2cccnc2C(=O)O)c2oc(-c3ccccc3)c(C)c(=O)c2c1 [Example 36, 3-[[(1R)-1-(3,6-Dimethyl-4-oxo-2-phenyl-chromen-8-yl)ethyl]amino]-pyridine-2-carboxylic acid] | 5000 to 10000 nM | 500 to 1000 nM | 50 to 100 nM | –
12 | Cc1cc([C@@H](C)Nc2ccccc2C(=O)O)c2oc(-c3ccccc3)c(C)c(=O)c2c1 [Example 21, 2-[[(1R)-1-(3,6-Dimethyl-4-oxo-2-phenyl-chromen-8-yl)ethyl]amino]benzoic acid] | 1000 to 5000 nM | < 500 nM | < 50 nM | –
13 | Cc1cc([C@@H](C)Nc2cccc(F)c2C(=O)O)c2oc(-c3ccccc3)c(C)c(=O)c2c1 [Example 69, 2-[[(1R)-1-(3,6-Dimethyl-4-oxo-2-phenyl-chromen-8-yl)ethyl]amino]-6-fluoro-benzoic acid] | 500 to 1000 nM | < 500 nM | < 50 nM | –
14 | COc1ccccc1-c1cc(=O)c2cc(C)cc([C@@H](C)Nc3ccccc3C(=O)O)c2o1 [Example 67, 2-[[(1R)-1-[2-(2-Methoxyphenyl)-6-methyl-4-oxo-chromen-8-yl]ethyl]amino]benzoic acid 2,2,2-trifluoroacetic acid] | > 10000 nM | < 500 nM | 50 to 100 nM | –
15 | Cc1cc([C@@H](C)Nc2ccccc2C(=O)O)c2oc(-c3cc(F)cc(F)c3)cc(=O)c2c1 [Example 68, 2-[[(1R)-1-[2-(3,5-Difluorophenyl)-6-methyl-4-oxo-chromen-8-yl]ethyl]amino]benzoic acid 2,2,2-trifluoroacetic acid] | 1000 to 5000 nM | < 500 nM | < 50 nM | –

The next lines start with the values.

Row | IC50 [1] | IC50 [2] | IC50 ([3]; Homo sapiens, MDA-MB-453, 3 h) | IC50 [3] | SMILES
16 | 1000 to 5000 nM | 1000 to 5000 nM | – | > 500 nM | Cc1cc(C(C)Nc2cccc(F)c2C(=O)O)c2oc(-c3cccc(F)c3)c(C)c(=O)c2c1 (single isomer, unassigned; isomer 2) [Example 106, 2-Fluoro-6-[1-[2-(3-fluorophenyl)-3,6-dimethyl-4-oxo-chromen-8-yl]ethylamino]benzoic acid, Isomer 2]
17 | 1000 to 5000 nM | < 500 nM | < 50 nM | – | Cc1cc(C(C)Nc2cccc(F)c2C(=O)O)c2oc(-c3cccc(F)c3)c(C)c(=O)c2c1 (stereo not drawn) [Example 95, 2-Fluoro-6-[1-[2-(3-fluorophenyl)-3,6-dimethyl-4-oxo-chromen-8-yl]ethylamino]benzoic acid 2,2,2-trifluoroacetic acid]
18 | 1000 to 5000 nM | < 500 nM | < 50 nM | – | Cc1cc([C@@H](C)Nc2ccc(Cl)nc2C(=O)O)c2oc(-c3ccc(F)cc3F)c(C)c(=O)c2c1 [Example 131, 6-Chloro-3-[[(1R)-1-[2-(2,4-difluorophenyl)-3,6-dimethyl-4-oxo-chromen-8-yl]ethyl]amino]pyridine-2-carboxylic acid 2,2,2-trifluoroacetic acid]
19 | 1000 to 5000 nM | < 500 nM | < 50 nM | – | C[C@@H](Nc1ccc(Cl)nc1C(=O)O)c1cc(C(F)(F)F)cc2c(=O)cc(-c3ccc(F)c(F)c3)oc12 [Example 88, 6-Chloro-3-[[(1R)-1-[2-(3,4-difluorophenyl)-4-oxo-6-(trifluoromethyl)-chromen-8-yl]ethyl]amino]pyridine-2-carboxylic acid]
20 | 1000 to 5000 nM | 1000 to 5000 nM | – | > 500 nM | COc1ccc(NC(C)c2cc(C)cc3c(=O)c(C)c(-c4ccccc4)oc23)c(C(=O)O)n1 (single isomer, unassigned; isomer 2) [Example 110, 3-[1-(3,6-Dimethyl-4-oxo-2-phenyl-chromen-8-yl)ethylamino]-6-methoxy-pyridine-2-carboxylic acid, Isomer 2]
21 | 1000 to 5000 nM | < 500 nM | – | < 50 nM | Cc1cc(C(C)Nc2cccc(F)c2C(=O)O)c2oc(-c3cccc(F)c3)c(C)c(=O)c2c1 (single isomer, unassigned; isomer 1) [Example 105, 2-Fluoro-6-[1-[2-(3-fluorophenyl)-3,6-dimethyl-4-oxo-chromen-8-yl]ethylamino]benzoic acid, Isomer 1]
22 | 500 to 1000 nM | < 500 nM | < 50 nM | – | Cc1cc([C@@H](C)Nc2ccccc2C(=O)O)c2oc(-c3ccc(-c4cn[nH]c4)cc3)c(C)c(=O)c2c1 [Example 162, 2-[[(1R)-1-[3,6-Dimethyl-4-oxo-2-[4-(1H-pyrazol-4-yl)phenyl]chromen-8-yl]ethyl]amino]benzoic acid]
23 | > 10000 nM | 5000 to 10000 nM | > 500 nM | – | Cc1cc(C(C)Nc2cccc(F)c2C(=O)O)c2oc(-c3ccccc3F)cc(=O)c2c1 (single isomer, unassigned; isomer 2) [Example 108, 2-Fluoro-6-[1-[2-(2-fluorophenyl)-6-methyl-4-oxo-chromen-8-yl]ethylamino]benzoic acid, Isomer 2]
24 | > 10000 nM | < 500 nM | 100 to 500 nM | – | Cc1cc([C@@H](C)Nc2cnccc2C(=O)O)c2oc(-c3ccccc3)c(C)c(=O)c2c1 [Example 138, 3-[[(1R)-1-(3,6-Dimethyl-4-oxo-2-phenyl-chromen-8-yl)ethyl]amino]pyridine-4-carboxylic acid]
25 | 500 to 1000 nM | < 500 nM | < 50 nM | – | Cc1cc([C@@H](C)Nc2ccccc2C(=O)O)c2oc(-c3ccc(-c4c[nH]nc4C)cc3)c(C)c(=O)c2c1 [Example 161, 2-[[(1R)-1-[3,6-Dimethyl-2-[4-(3-methyl-1H-pyrazol-4-yl)phenyl]-4-oxo-chromen-8-yl]ethyl]amino]benzoic acid]
